Patent publication US8273562B2, “Method for producing 4-hydroxy-L-isoleucine” (Ajinomoto Co., Inc., priority 2006, dated 2012)

How the values were obtained:
[1] = biological target: T1, enzyme in 2-e-2 cell lysate (Bacillus thuringiensis, UniProt E2GIN1); assay: Substrate reaction characteristics of enzyme in 2-e-2 cell lysate; assay type: biochemical; conditions: 5 mM amino acid, pH 7, 30° C., 1 hour, TLC or amino acid analysis
T1 construct: the collected and washed 2-e-2 cells were disrupted using a mortar; endogenous in cells; host or cells: Bacillus thuringiensis 2-e-2 cell lysate
T1 sequence (E2GIN1 2-240): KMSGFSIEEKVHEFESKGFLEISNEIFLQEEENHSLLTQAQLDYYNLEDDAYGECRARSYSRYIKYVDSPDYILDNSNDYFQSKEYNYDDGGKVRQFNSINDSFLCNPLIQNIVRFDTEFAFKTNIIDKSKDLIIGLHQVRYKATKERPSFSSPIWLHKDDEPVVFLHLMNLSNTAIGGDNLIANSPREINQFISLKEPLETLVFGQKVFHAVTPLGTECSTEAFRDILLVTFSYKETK
Experimental: (§1) The cells were cultured in the AMKP medium until OD660 of 3.2 was achieved, then the collected and washed 2-e-2 cells were disrupted using a mortar, and suspended in a buffer (50 mM HEPES (pH 7.0), 10% of glycerol, Complete Mini (Roche)) until a suspension (lysate) is obtained having a protein concentration of about 10 mg/ml including centrifugation precipitates. The centrifugation precipitates were finally suspended in physiological saline of the same volume as the cell lysate. These were each mixed with an equal volume of a 2× dioxygenase reaction mixture (10 mM Ile, […], 10 mM 2-oxoglutaric acid, 10 mM ascorbic acid, 100 mM HEPES (pH 7.0)), and the reaction proceeded at 30° C. for 1 hour. Similarly, resting cells used for the preparation of the cell lysate were washed, and suspended in physiological saline at a concentration 10 times that in the culture broth, the suspension was mixed with an equal volume of the 2× dioxygenase reaction mixture, and the reaction proceeded.
By using a cell lysate prepared from 2-e-2 cells at OD660 of 7 according to the method described in <5>, the reaction characteristics for various amino acids were evaluated. The cell lysate and a substrate solution were mixed, then the reaction proceeded at 30° C. for 1 hour, and the production of new substances was evaluated by TLC or amino acid analysis. The substrate reaction mixture contained 5 mM amino acid, 5 mM Fe^2+, 5 mM 2-oxoglutaric acid, 5 mM ascorbic acid, and 100 mM HEPES (pH 7). In addition to L-isoleucine, the amino acids L-leucine, L-valine, L-glutamic acid, and L-lysine were each individually evaluated. The 4-hydroxyisoleucine which was produced was analyzed by the method described in Example 1. Production of amino acids other than L-isoleucine was not observed.

[2] = biological target: T2, L-Ile hydroxylase (Bacillus thuringiensis, UniProt E2GIN1); assay: Substrate reaction characteristics of purified L-Ile hydroxylase; assay type: biochemical; conditions: 5 mM amino acid; purified enzyme; pH 6, 30° C., 1 hour; HPLC
T2 construct: made in house; host or cells: Bacillus thuringiensis 2-e-2 (natural producer; enzyme purified by chromatography, not recombinant)
T2 sequence (E2GIN1 2-240): as above
Experimental: By using L-Ile hydroxylase prepared as described in Example 2, the reaction characteristics for various amino acids were evaluated. The enzyme solution and the reaction mixture were mixed, and then the reaction proceeded at 30° C. for 1 hour, and the production of new substances was evaluated by HPLC analysis. The enzymatic reaction solution contained 5 mM amino acid, 5 mM Fe^2+, 5 mM 2-oxoglutaric acid, 5 mM ascorbic acid, and 100 mM HEPES (pH 6). In addition to L-isoleucine, the amino acids D-isoleucine, L-leucine, L-valine, L-glutamic acid, and L-lysine were also individually evaluated. The produced 4-hydroxyisoleucine was analyzed as in Example 1. Like when using a cell lysate, production of a new substance could not be confirmed for amino acids other than L-isoleucine.

[3] = test system: dioxygenase activity in fenugreek extract; conditions: cited from earlier work
[4] = biological target: T2, L-Ile hydroxylase; assay: Effects of inhibitors on 4-hydroxyisoleucine production by purified L-Ile hydroxylase; assay type: biochemical; conditions: 10 mM inhibitor; 4-hydroxyisoleucine production with no inhibitor = 100%; pH 6, 30° C., 1 hour
Experimental: Each fraction was reacted using an Ile hydroxylation activity reaction mixture (100 mM HEPES (pH 6.0), 5 mM L-Ile, 5 mM Fe^2+, 5 mM 2-oxoglutaric acid, 5 mM ascorbic acid at final concentrations) at 30° C. for 30 minutes. The enzyme was inactivated at 100° C., and then the amount of 4-hydroxyisoleucine was quantified by the aforementioned AMKP and HIL separation and measurement method. The 4-hydroxyisoleucine referred to in the subsequent analysis indicates a substance that is substantially composed of the isomer having the same retention time as that of the naturally occurring 4-hydroxyisoleucine. The enzyme activity that produces 1 nmol of HIL per minute was defined as 1 U.
By using L-Ile hydroxylase prepared as described in Example 2, the effect of inhibitors on the production of 4-hydroxyisoleucine were examined. The enzymatic reaction solution contained 5 mM Ile, 5 mM Fe^2+, 5 mM 2-oxoglutaric acid, 5 mM ascorbic acid, and 100 mM HEPES (pH 6), the reaction temperature was 30° C., and the reaction time was 1 hour. The amount of 4-hydroxyisoleucine produced when 10 mM of each inhibitor (EDTA, Cu^2+, Zn^2+) was added to the reaction system was measured. These values are relative to the 4-hydroxyisoleucine production observed with no inhibitor, which was set as 100%. The isoleucine hydroxylation activity was lost in the presence of the inhibitors.

[5] = biological target: T1, enzyme in 2-e-2 cell lysate; assay: Effect of inhibitors on 4-hydroxyisoleucine production in the 2-e-2 cell lysate; assay type: biochemical; conditions: 10 mM inhibitor, pH 6, 30° C., 1 hour
Experimental: as §1
By using a cell lysate prepared from 2-e-2 cells at OD660 of 7 according to the method described in <5>, the effects of inhibitors on the 4-hydroxyisoleucine production were examined. […] The dioxygenase reaction mixture contained 5 mM Ile, 5 mM Fe^2+, 5 mM 2-oxoglutaric acid, 5 mM ascorbic acid, and 100 mM HEPES (pH 6), the reaction temperature was 30° C., and the reaction time was 1 hour. The amount of 4-hydroxyisoleucine which was produced when 10 mM of each inhibitor (EDTA, Cu^2+, Zn^2+) was added to the reaction system was measured. 4-Hydroxyisoleucine was analyzed by the method described in <2>. The isoleucine hydroxylation activity was inhibited by the inhibitors.

[6] = biological target: T1, enzyme in 2-e-2 cell lysate; assay: Effects of enzyme cofactors on 4-hydroxyisoleucine production with 2-e-2 cell lysate; assay type: biochemical; conditions: Lysate + 5 mM Ile + 5 mM cofactor; 50 mM HEPES pH 7
Experimental: as §1
By using a cell lysate of the 2-e-2 cells in the logarithmic growth phase, the effects of cofactors on the 4-hydroxyisoleucine production reaction by hydroxylation of Ile were examined. A 50 mM HEPES (pH 7) reaction mixture was used containing final concentrations of 5 mM Ile and 5 mM of one of various cofactors with a cell lysate of the 2-e-2 cells (lysate) in the logarithmic growth phase prepared by the method described in <5> above, and the amount of 4-hydroxyisoleucine produced was measured.

[7] = biological target: T2, L-Ile hydroxylase; assay: Effects of addition of cofactors on 4-hydroxyisoleucine production with purified enzyme; assay type: biochemical; conditions: purified enzyme + 5 mM L-Ile + 5 mM cofactor; 100 mM HEPES pH 6
Description: The effects of cofactors on the production of 4-hydroxyisoleucine by hydroxylation of Ile were examined by using the purified enzyme.

[8] = test system: strain 2-e-2; assay: Effect of addition of cofactors on AMKP production in culture of strain 2-e-2; assay type: cell-based, Bacillus thuringiensis; conditions: culture supernatant; 30° C., 22 hours; control 1.34
Experimental: The possibility of molecular oxygen uptake by hydroxylation was considered as a possible mechanism for the production of AMKP. Accordingly, the production of AMKP was analyzed when NAD(P)H, or Fe^2+, 2-oxoglutaric acid and ascorbic acid, were added during the culture of the 2-e-2 strain. NAD(P)H is a cofactor of monooxygenases and Fe^2+, 2-oxoglutaric acid and ascorbic acid are cofactors of dioxygenases.
The culture medium used in the previous screening was used as a control, and the production of AMKP was compared among cultures containing the cofactors as shown in Table 3. The culture temperature was 30° C., and the culture time was 22 hours. The concentration of AMKP in the culture supernatants was measured.

[9] = biological target: IDO(Lys,23) (Bacillus thuringiensis, UniProt E2GIN1)
Chain of IDO(Lys,23) (E2GIN1 2-240): as above

[10] = Production of HIL from Ile with crude enzyme solution of E. coli expressing ido genes; assay type: biochemical, Escherichia coli; conditions: 28° C., 3 hours, control (pET21b) 11
Experimental: The plasmid expressing the ido gene from B. cereus ATCC 14579, B. thuringiensis AKU238, or B. weihenstephanensis KBAB4, which was constructed in Example 8, was introduced into E. coli Rosetta2 (DE3), and the transformants were cultivated with shaking in LB medium supplemented with 50 μg/ml ampicilin (preculture). By seeding the preculture broth in 50 ml LB medium at 1%, the main culture was carried out at 37° C. 2 hours after the start of the cultivation, IPTG was added to a final concentration of 1 mM, and the cultivation was carried out for an additional 3 hours. After completion of the cultivation, the cells were harvested, washed, suspended in 1 ml of 20 mM Tris-HCl (pH 7.6), and disrupted with a sonicator (INSONATOR 201M, KUBOTA). The lysate was centrifuged at 15000 rpm for 10 minutes, and the supernatant was used as a crude enzyme solution.
By using the crude enzyme solution prepared in (1), the conversion of Ile to HIL was measured. The reaction mixture is described below. The reaction mixture was reacted with shaking (300 rpm) at 28° C. for 3 hours, and then the amount of HIL produced was determined by HPLC.

For `CC[C@H](C)[C@H](N)C(=O)O` [L-Isoleucine, L-isoleucine], the “Product (reactivity for various amino acids)” value [1] is given as “Produced (HIL)”, the “Product (reactivity for each amino acid)” value [2] is given as “Produced (HIL)” and the “isoleucine concentration that inhibits the activity of the enzyme” value [3] is given as no less than 20 mM.

For `[Zn+2]` [Zn^2+], the “Relative activity (%)” value [4] was 0% and the “isoleucine hydroxylation activity in presence of inhibitor” value [5] was “inhibited”.

For `CC[C@@H](C)[C@@H](N)C(=O)O` [D-Isoleucine, D-isoleucine], the “Product (reactivity for each amino acid)” value [2] was “None”.

For `N[C@@H](CCC(=O)O)C(=O)O` [L-Glutamic acid, L-glutamic acid], the “Product (reactivity for various amino acids)” value [1] was “None” and the “Product (reactivity for each amino acid)” value [2] was “None”.

With `O=C1O[C@H]([C@@H](O)CO)C(O)=C1O` [Ascorbate, ascorbic acid] the “HIL production” value [6] was 0.00 mM and the “HIL” value [7] was 0.00 mM.

With `O=C(O)CCC(=O)C(=O)O` [α-KG, 2-oxoglutaric acid] the “HIL production” value [6] was 0.00 mM and the “HIL” value [7] was 0.00 mM.

In the case of NAD(P)H, the “AMKP concentration” value [8] is reported as 1.58 mM.

For `[Cu+2]` [Cu^2+], the “Relative activity (%)” value [4] was 0% and the “isoleucine hydroxylation activity in presence of inhibitor” value [5] was “inhibited”.

For `O=C(O)CN(CCN(CC(=O)O)CC(=O)O)CC(=O)O` [EDTA], the “Relative activity (%)” value [4] was 0%, the “isoleucine hydroxylation activity in presence of inhibitor” value [5] was “inhibited” and the “activity of IDO(Lys,23) in the presence of the substance” value [9] was “completely blocked”.

In the case of `NCCCC[C@H](N)C(=O)O` [L-Lysine, L-lysine], the “Product (reactivity for various amino acids)” value [1] is reported as “None” and the “Product (reactivity for each amino acid)” value [2] is reported as “None”.

In the case of `CC(C)C[C@H](N)C(=O)O` [L-Leucine, L-leucine], the “Product (reactivity for various amino acids)” value [1] is reported as “None” and the “Product (reactivity for each amino acid)” value [2] is reported as “None”.

With `[Fe+2]` [Fe^2+] the “HIL production” value [6] was 0.00 mM, the “HIL” value [7] was 0.00 mM and the “AMKP concentration” value [8] was 2.53 mM.

For `CC(C)[C@H](N)C(=O)O` [L-Valine, L-valine], the “Product (reactivity for various amino acids)” value [1] was “None” and the “Product (reactivity for each amino acid)” value [2] was “None”.

B1: B. thuringiensis israelensis ATCC35646: crude enzyme solution with IDO from B. thuringiensis israelensis ATCC 35646, SEQ ID NO: 8 (protein, listed as Bacillus thuringiensis)
chain: KMSGFSIEEKVHEFESKGFLEISNEIFLQEEENHSLLTQAQLDYYNLEDDAYGECRARSYSRYIKYVDSPDYILDNSNDYFQSKEYNYDDGGKVRQFNSINDSFLCNPLIQNIVHFDTEFAFKTNIIDKSKDLIIGLHQVRYKATKERPSFSSPIWLHKDDEPVVFLHLMNLSNTAIGGDNLIANSPREINQFISLKEPLETLVFGQKVFHAVTPLGTECSTEAFRDILLVTFSYKETK
With B1 the “Amount of HIL produced from Ile, HIL” value [10] was 2150 µM.

B2: B. weihenstephanensis KBAB4: crude enzyme solution of E. coli expressing ido gene from B. weihenstephanensis KBAB4, SEQ ID NO: 21 (protein, listed as Bacillus weihenstephanensis)
chain: MLTTVSNKTSSFDVEQKVHEFESNGYIQIFNDIFLQDQEDQALLTKAQLDYYSLQNDAYGECRARAYSRYIKYAGSSDYVLDTDNGYFQSEEYNYDDGGKIRNFNSITDEFLHNSLIEKIVRFDSEFASNTNILDTSKDLVIGLHQVRYKATRENPSFSSPIWLHKDDEPIVFLHLMNLSNTALGGDNLIANSPREINKLISLKDPLETLVFGQKVFHAVTPLGTECNTEALRDILLVTFSYKEPK
With B2 the “Amount of HIL produced from Ile, HIL” value [10] was 3116 µM.

B3: B. thuringiensis AKU238: crude enzyme solution of E. coli expressing ido gene from B. thuringiensis AKU238, SEQ ID NO: 17 (protein, listed as Bacillus thuringiensis)
chain: MEVFIMTFVLSKMSGFSIEEKVHEFESKGFLEISNEIFLQEEENHRLLTQAQLDYYNLEDDAYGECRARSYSRYIKYVDSPDYILDNSNDYFQSKEYNYDDGGKVRQFNSINDSFLCNPLIQNIVRFDTEFAFKTNIIDTSKDLIIGLHQVRYKATKERPSFSSPIWLHKDDEPVVFLHLMNLSNTAIGGDNLIANSPREINQFISLKEPLETLVFGQKVFHAVTPLGTECSTEAFRDILLVTFSYKETK
In the case of B3, the “Amount of HIL produced from Ile, HIL” value [10] is reported as 2016 µM.
